Reference: patent US7846959B2, “Raf modulators and methods of use” (Exelixis, Inc., priority 2004, dated 2010)

Tests used:
B-Raf = B-Raf (Homo sapiens, UniProt P15056); test: Luciferase-coupled chemiluminescence kinase assay (ATP consumption), B-Raf; format: biochemical; settings: read-out: bRaf IC50
Method: (§1) Tyrosine kinase activity is determined by 1) measurement of kinase-dependent ATP consumption by in the presence of a generic substrate such as […], tyrosine (pEY), by luciferase/luciferin-mediated chemiluminescence or; 2) incorporation of radioactive phosphate derived from ^33P-ATP into a generic substrate which has been adsorbed onto the well surface of polystyrene microtiter plates. Phosphorylated substrate products are quantified by scintillation spectrometry.
(§2) Luciferase-Coupled Chemiluminescence Assay Protocol
(§3) Kinase activity is measured as the percent of ATP consumed following the kinase reaction using luciferase-luciferin-coupled chemiluminescence. Reactions were conducted in 384-well white, medium binding microtiter plates (Greiner). Kinase reactions were initiated by combining test compounds, ATP and kinase in a 20 uL volume. The reaction mixture was incubated at ambient temperature for 3 hrs. For c-Raf, B-Raf, and B-RafV599E, […] of the enzyme was pre-incubated with compound in 20 mM Tris pH 7.5, 10 mM MgCl2, 0.03% TX-100, and 1 mM DTT for 30 minutes at room temperature. Following the kinase reaction, a 20 μL aliquot of luciferase-luciferin mix was added and the chemiluminescence signal measured using a Victor^2 plate reader (Perkin Elmer). The luciferase-luciferin mix contained 50 mM HEPES, pH 7.8, 67 mM oxalic acid (pH 7.8), 5 (or 50) mM DTT, 0.4% Triton X-100, 0.25 mg/mL coenzyme A, 63 μM AMP, 28 μg/mL luciferin and 40,000 units/mL luciferase. Total ATP consumption was limited to 25-60% and the IC50 values correlate well with those determined by radiometric assays.

c-Raf = c-Raf (Homo sapiens, UniProt P04049); test: Luciferase-coupled chemiluminescence kinase assay (ATP consumption), c-Raf; format: biochemical; settings: read-out: cRaf-1 IC50
c-Raf, sequence (P04049 whole entry): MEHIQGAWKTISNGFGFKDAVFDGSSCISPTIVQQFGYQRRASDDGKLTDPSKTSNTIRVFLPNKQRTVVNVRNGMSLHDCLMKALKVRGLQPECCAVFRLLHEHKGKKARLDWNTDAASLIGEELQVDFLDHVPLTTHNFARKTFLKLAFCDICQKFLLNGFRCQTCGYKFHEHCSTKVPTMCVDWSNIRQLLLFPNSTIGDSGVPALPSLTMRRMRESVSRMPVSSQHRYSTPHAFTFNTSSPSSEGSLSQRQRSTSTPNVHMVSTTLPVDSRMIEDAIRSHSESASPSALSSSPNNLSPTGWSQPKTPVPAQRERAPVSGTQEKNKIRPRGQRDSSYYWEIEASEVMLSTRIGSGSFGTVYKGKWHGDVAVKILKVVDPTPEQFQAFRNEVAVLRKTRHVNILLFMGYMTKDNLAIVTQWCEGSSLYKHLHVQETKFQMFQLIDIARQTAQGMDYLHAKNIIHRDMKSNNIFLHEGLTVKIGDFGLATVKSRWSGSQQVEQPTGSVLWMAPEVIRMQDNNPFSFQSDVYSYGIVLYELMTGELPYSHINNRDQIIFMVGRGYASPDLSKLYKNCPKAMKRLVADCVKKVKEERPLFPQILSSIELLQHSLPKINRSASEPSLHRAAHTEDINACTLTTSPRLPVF
Method: as §1, §2, §3

B-Raf, sequence (P15056 whole entry): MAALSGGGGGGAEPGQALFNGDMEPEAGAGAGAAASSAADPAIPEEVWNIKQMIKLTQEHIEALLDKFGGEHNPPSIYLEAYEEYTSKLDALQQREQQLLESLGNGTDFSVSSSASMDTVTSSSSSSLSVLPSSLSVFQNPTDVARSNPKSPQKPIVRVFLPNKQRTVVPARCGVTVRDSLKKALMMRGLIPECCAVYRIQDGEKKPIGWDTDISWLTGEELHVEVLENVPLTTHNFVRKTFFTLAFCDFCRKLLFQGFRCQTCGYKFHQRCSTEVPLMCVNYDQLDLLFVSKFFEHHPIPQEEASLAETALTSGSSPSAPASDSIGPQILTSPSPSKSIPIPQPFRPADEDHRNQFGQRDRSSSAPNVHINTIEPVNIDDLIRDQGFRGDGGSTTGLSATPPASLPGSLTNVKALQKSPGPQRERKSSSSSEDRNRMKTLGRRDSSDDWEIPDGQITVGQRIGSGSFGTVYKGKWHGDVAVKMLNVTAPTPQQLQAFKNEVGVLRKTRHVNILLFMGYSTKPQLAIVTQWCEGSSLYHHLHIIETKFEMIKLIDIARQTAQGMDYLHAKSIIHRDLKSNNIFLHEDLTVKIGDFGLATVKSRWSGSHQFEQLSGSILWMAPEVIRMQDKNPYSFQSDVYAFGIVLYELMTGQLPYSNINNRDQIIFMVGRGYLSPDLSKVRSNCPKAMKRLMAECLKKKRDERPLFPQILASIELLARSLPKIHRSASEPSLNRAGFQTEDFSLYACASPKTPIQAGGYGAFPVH

Structure (SMILES) | IC50 (B-Raf) [µM] | IC50 (c-Raf) [µM]
O=C1COc2ccc(C3(O)c4ccccc4C(=O)N3Cc3ccccc3Br)cc2N1 (stereo not drawn) [Entry 37, 6-{2-[(2-bromophenyl)methyl]-1-hydroxy-3-oxo-2,3-dihydro-1H-isoindol-1-yl}-2H-1,4-benzoxazin-3(4H)-one] | ≥ 10 | ≥ 10
O=C1COc2ccc(C3(O)c4ccccc4C(=O)N3Cc3ccccc3F)cc2N1 (stereo not drawn) [Entry 38, 6-{2-[(2-fluorophenyl)methyl]-1-hydroxy-3-oxo-2,3-dihydro-1H-isoindol-1-yl}-2H-1,4-benzoxazin-3(4H)-one] | ≥ 10 | 1 to 10
O=C1COc2ccc(C(=O)c3ccccc3-c3nc(-c4ccccc4)no3)cc2N1 [Entry 48, 6-{[2-(3-phenyl-1,2,4-oxadiazol-5-yl)phenyl]carbonyl}-2H-1,4-benzoxazin-3(4H)-one] | ≥ 10 | ≥ 10
O=C1COc2ccc(C(=O)c3ccccc3-c3nc4ccccc4[nH]3)cc2N1 [Entry 49, 6-{[2-(1H-benzimidazol-2-yl)phenyl]carbonyl}-2H-1,4-benzoxazin-3(4H)-one] | ≥ 10 | ≥ 10
O=C1COc2ccc(C3(O)c4ccccc4C(=O)N3Cc3ccccc3C(F)(F)F)cc2N1 (stereo not drawn) [Entry 50, 6-(1-hydroxy-3-oxo-2-{[2-(trifluoromethyl)phenyl]methyl}-2,3-dihydro-1H-isoindol-1-yl)-2H-1,4-benzoxazin-3(4H)-one] | ≥ 10 | ≥ 10
O=C1COc2ccc(C3(O)c4ccccc4C(=O)N3Cc3cccc(C(F)(F)F)c3)cc2N1 (stereo not drawn) [Entry 53, 6-(1-hydroxy-3-oxo-2-{[3-(trifluoromethyl)phenyl]methyl}-2,3-dihydro-1H-isoindol-1-yl)-2H-1,4-benzoxazin-3(4H)-one] | ≥ 10 | ≥ 10
COc1cccc(CN2C(=O)c3ccccc3C2(O)c2ccc3c(c2)NC(=O)CO3)c1OC (stereo not drawn) [Entry 54] | ≥ 10 | ≥ 10
O=C1COc2ccc(C3(O)c4ccccc4C(=O)N3Cc3cccc(OC(F)(F)F)c3)cc2N1 (stereo not drawn) [Entry 56, 6-[1-hydroxy-3-oxo-2-({3-[(trifluoromethyl)oxy]phenyl}methyl)-2,3-dihydro-1H-isoindol-1-yl]-2H-1,4-benzoxazin-3(4H)-one] | ≥ 10 | ≥ 10
CSc1ccccc1CN1C(=O)c2ccccc2C1(O)c1ccc2c(c1)NC(=O)CO2 (stereo not drawn) [Entry 57, 6-(1-hydroxy-2-{[2-(methylthio)phenyl]methyl}-3-oxo-2,3-dihydro-1H-isoindol-1-yl)-2H-1,4-benzoxazin-3(4H)-one] | ≥ 10 | ≥ 10
O=C1COc2ccc(C3(O)c4ccccc4C(=O)N3c3cccc(OC(F)(F)F)c3)cc2N1 (stereo not drawn) [Entry 60, 6-(1-hydroxy-3-oxo-2-{3-[(trifluoromethyl)oxy]phenyl}-2,3-dihydro-1H-isoindol-1-yl)-2H-1,4-benzoxazin-3(4H)-one] | ≥ 10 | ≥ 10
NS(=O)(=O)c1cccc(N2C(=O)c3ccccc3C2(O)c2ccc3c(c2)NC(=O)CO3)c1 (stereo not drawn) [Entry 62, 3-[1-hydroxy-3-oxo-1-(3-oxo-3,4-dihydro-2H-1,4-benzoxazin-6-yl)-1,3-dihydro-2H-isoindol-2-yl]benzenesulfonamide] | ≥ 10 | 1 to 10
COc1ccc(Cl)cc1N1C(=O)c2ccccc2C1(O)c1ccc2c(c1)NC(=O)CO2 (stereo not drawn) [Entry 63, 6-{2-[5-chloro-2-(methyloxy)phenyl]-1-hydroxy-3-oxo-2,3-dihydro-1H-isoindol-1-yl}-2H-1,4-benzoxazin-3(4H)-one] | 1 to 10 | ≥ 10
O=C1COc2ccc(C3(O)c4ccccc4C(=O)N3c3ccc(F)c(C(F)(F)F)c3)cc2N1 (stereo not drawn) [Entry 64, 6-{2-[4-fluoro-3-(trifluoromethyl)phenyl]-1-hydroxy-3-oxo-2,3-dihydro-1H-isoindol-1-yl}-2H-1,4-benzoxazin-3(4H)-one] | ≥ 10 | ≥ 10
O=C1c2ccccc2C(O)(c2ccc3cc[nH]c3c2)N1Cc1ccccc1 (stereo not drawn) [Entry 65, 3-hydroxy-3-(1H-indol-6-yl)-2-(phenylmethyl)-2,3-dihydro-1H-isoindol-1-one] | ≥ 10 | ≥ 10
O=C1COc2ccc(C3(O)c4ccccc4C(=O)N3c3cc(F)cc(I)c3)cc2N1 (stereo not drawn) [Entry 66, 6-[2-(3-fluoro-5-iodophenyl)-1-hydroxy-3-oxo-2,3-dihydro-1H-isoindol-1-yl]-2H-1,4-benzoxazin-3(4H)-one] | 1 to 10 | 1 to 10
O=C1COc2ccc(C3(O)c4ccccc4C(=O)N3c3cc(F)cc(F)c3)cc2N1 (stereo not drawn) [Entry 68, 6-[2-(3,5-difluorophenyl)-1-hydroxy-3-oxo-2,3-dihydro-1H-isoindol-1-yl]-2H-1,4-benzoxazin-3(4H)-one] | 1 to 10 | 1 to 10

Now from value to compound:

IC50 (B-Raf) [µM] | IC50 (c-Raf) [µM] | Structure (SMILES)
1 to 10 | 0.1 to 1 | O=C1COc2ccc(C3(O)c4ccccc4C(=O)N3c3cccc(F)c3)cc2N1 (stereo not drawn) [Entry 39, 6-[2-(3-fluorophenyl)-1-hydroxy-3-oxo-2,3-dihydro-1H-isoindol-1-yl]-2H-1,4-benzoxazin-3(4H)-one]
0.1 to 1 | < 0.1 | O=C1COc2ccc(C3(O)c4ccccc4C(=O)N3c3cccc(I)c3)cc2N1 (stereo not drawn) [Entry 40, 6-[1-hydroxy-2-(3-iodophenyl)-3-oxo-2,3-dihydro-1H-isoindol-1-yl]-2H-1,4-benzoxazin-3(4H)-one]
0.1 to 1 | < 0.1 | O=C1COc2ccc(C3(O)c4ccccc4C(=O)N3c3cccc(Br)c3)cc2N1 (stereo not drawn) [Entry 41, 6-[2-(3-bromophenyl)-1-hydroxy-3-oxo-2,3-dihydro-1H-isoindol-1-yl]-2H-1,4-benzoxazin-3(4H)-one]
1 to 10 | 0.1 to 1 | O=C1COc2ccc(C3(O)c4ccccc4C(=O)N3c3cccc([N+](=O)[O-])c3)cc2N1 (stereo not drawn) [Entry 42, 6-[1-hydroxy-2-(3-nitrophenyl)-3-oxo-2,3-dihydro-1H-isoindol-1-yl]-2H-1,4-benzoxazin-3(4H)-one]
0.1 to 1 | 0.1 to 1 | COc1cccc(N2C(=O)c3ccccc3C2(O)c2ccc3c(c2)NC(=O)CO3)c1 (stereo not drawn) [Entry 43, 6-{1-hydroxy-2-[3-(methyloxy)phenyl]-3-oxo-2,3-dihydro-1H-isoindol-1-yl}-2H-1,4-benzoxazin-3(4H)-one]
0.1 to 1 | 0.1 to 1 | Cc1cccc(N2C(=O)c3ccccc3C2(O)c2ccc3c(c2)NC(=O)CO3)c1 (stereo not drawn) [Entry 44, 6-[1-hydroxy-2-(3-methylphenyl)-3-oxo-2,3-dihydro-1H-isoindol-1-yl]-2H-1,4-benzoxazin-3(4H)-one]
0.1 to 1 | 0.1 to 1 | Nc1ccccc1N1C(=O)c2ccccc2C1(O)c1ccc2c(c1)NC(=O)CO2 (stereo not drawn) [Entry 47, 6-[2-(2-aminophenyl)-1-hydroxy-3-oxo-2,3-dihydro-1H-isoindol-1-yl]-2H-1,4-benzoxazin-3(4H)-one]
1 to 10 | 1 to 10 | O=C1COc2ccc(C3(O)c4ccccc4C(=O)N3Cc3cc(Br)ccc3F)cc2N1 (stereo not drawn) [Entry 51, 6-{2-[(5-bromo-2-fluorophenyl)methyl]-1-hydroxy-3-oxo-2,3-dihydro-1H-isoindol-1-yl}-2H-1,4-benzoxazin-3(4H)-one]
1 to 10 | 1 to 10 | O=C1COc2ccc(C3(O)c4ccccc4C(=O)N3Cc3cccc([N+](=O)[O-])c3)cc2N1 (stereo not drawn) [Entry 52, 6-{1-hydroxy-2-[(3-nitrophenyl)methyl]-3-oxo-2,3-dihydro-1H-isoindol-1-yl}-2H-1,4-benzoxazin-3(4H)-one]
1 to 10 | 1 to 10 | O=C1COc2ccc(C3(O)c4ccccc4C(=O)N3Cc3cccc(I)c3)cc2N1 (stereo not drawn) [Entry 55, 6-{1-hydroxy-2-[(3-iodophenyl)methyl]-3-oxo-2,3-dihydro-1H-isoindol-1-yl}-2H-1,4-benzoxazin-3(4H)-one]
1 to 10 | 1 to 10 | O=C1COc2ccc(C3(O)c4ccccc4C(=O)N3c3ccc(F)c(F)c3)cc2N1 (stereo not drawn) [Entry 58, 6-[2-(3,4-difluorophenyl)-1-hydroxy-3-oxo-2,3-dihydro-1H-isoindol-1-yl]-2H-1,4-benzoxazin-3(4H)-one]
0.1 to 1 | 0.1 to 1 | CC(C)c1cccc(N2C(=O)c3ccccc3C2(O)c2ccc3c(c2)NC(=O)CO3)c1 (stereo not drawn) [Entry 59, 6-{1-hydroxy-2-[3-(1-methylethyl)phenyl]-3-oxo-2,3-dihydro-1H-isoindol-1-yl}-2H-1,4-benzoxazin-3(4H)-one]
1 to 10 | 0.1 to 1 | O=C1COc2ccc(C3(O)c4ccccc4C(=O)N3c3cccc(C(F)(F)F)c3)cc2N1 (stereo not drawn) [Entry 61, 6-{1-hydroxy-3-oxo-2-[3-(trifluoromethyl)phenyl]-2,3-dihydro-1H-isoindol-1-yl}-2H-1,4-benzoxazin-3(4H)-one]
0.1 to 1 | 0.1 to 1 | Nc1cccc(N2C(=O)c3ccccc3C2(O)c2ccc3c(c2)NC(=O)CO3)c1 (stereo not drawn) [Entry 67, 6-[2-(3-aminophenyl)-1-hydroxy-3-oxo-2,3-dihydro-1H-isoindol-1-yl]-2H-1,4-benzoxazin-3(4H)-one]
